Assay results from US20140219986A1, “DOSING REGIMENS FOR THE TREATMENT OF FABRY DISEASE” (AMICUS THERAPEUTICS ,INC., priority 2011, published 2014).
Where “and” joins values, the source holds several entries; their conditions need not be identical. Equal values may be shown once. Where a name gives a salt, the structure may show the parent alone. Read-outs that look alike come from different tables or passages of the source. Each block holds one compound with its values, some of them ahead of it.

Columns and labels:
[1] = target: T1, α-Gal A (Homo sapiens, UniProt P06280); assay: Phase 2 co-administration study: PBMC α-Gal A activity (4-MUG); format: in vivo; conditions: 150 mg migalastat HCl + 0.5 mg/kg agalsidase beta, N=5 (Example 3)
T1 construct: purchased Genzyme Corporation (Fabrazyme®)
T1 sequence (P06280 32-429): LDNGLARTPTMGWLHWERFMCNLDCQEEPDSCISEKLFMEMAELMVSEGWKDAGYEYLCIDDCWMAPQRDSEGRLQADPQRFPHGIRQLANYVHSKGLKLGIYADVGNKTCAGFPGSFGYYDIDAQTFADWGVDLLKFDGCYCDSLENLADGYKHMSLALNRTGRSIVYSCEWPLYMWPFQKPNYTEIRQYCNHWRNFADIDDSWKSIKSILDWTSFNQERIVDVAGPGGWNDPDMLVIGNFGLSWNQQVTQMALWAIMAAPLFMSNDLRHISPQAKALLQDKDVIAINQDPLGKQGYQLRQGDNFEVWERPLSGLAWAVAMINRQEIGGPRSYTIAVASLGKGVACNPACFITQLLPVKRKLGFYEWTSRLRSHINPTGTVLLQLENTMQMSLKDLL

[2] = target: T1, α-Gal A; assay: Phase 2 co-administration study: skin α-Gal A activity (4-MUG); format: in vivo
Protocol: α-Gal A Enzyme Levels in Skin. α-Gal A enzyme levels will be examined in skin biopsy samples. Skin biopsies will be done using a “punch” device. One piece will be removed at each visit. α-Gal A levels in skin will be determined by a validated assay measuring enzyme activity using 4-MUG, with and without Con A. α-Gal A protein levels will be measured by Western blotting using anti-human Gal A antibody.
(§1) Methods. The study was conducted according to the methods described in Example 1. Specifically, this was an open-label, single dose, non-randomized, fixed-sequence, 2-stage study. Stage 1 comprised of 3 periods: • (1) agalsidase beta 0.5 mg/kg or 1.0 mg/kg (infusion for about 2 hours) or agalsidase alpha 0.2 mg/kg (infusion for about 40 min.) enzyme replacement montherapy (ERT); • (2) ERT+150 mg migalastat oral tablet (single dose) co-administration, migalastat administered 2 hrs. prior to ERT; and • (3) 150 mg migalastat monotherapy.
(§2) α-Gal A catalyzes the initial step in breakdown of substrate GL-3 in vivo. α-Gal A also acts on other substrates with the same α-bond such as the artificial low-molecular weight florescent substrate, 4-MUG. α-Gal A activity on 4-MUG was measured in vitro from plasma, skin, and PBMC samples following serial dilutions to dissociate migalastat.
(§3) 6 patients with plasma, skin, and PBMC α-galactosidase A activity from Stage 1, Periods 1 and 2, were evaluated. Four patients received 0.5 mg/kg agalsidase beta ERT and 2 patients received 1.0 mg/kg agalsidase beta ERT during Period 1, and co-administration of 150 mg migalastat 2 hours prior to initiation of the same dose of ERT during Period 2.
(§4) Serial blood samples were taken to 24 hours post dose for plasma α-Gal A activity and protein levels each period. Blood samples for α-Gal A activity in peripheral blood mononuclear cells (PBMCs) were taken at predose and on Days 1, 2, 7, and 14 of each period. Punch biopsies for skin α-Gal A activity were taken at predose Period 1 and on Days 2 and 7 during Periods 1 and 2. Plasma α-Gal A activity PK parameters include Cmax, Tmax, AUC0-t, AUC0-inf, and t1/2. Pharmacokinetic parameters are calculated using standard non-compartmental procedures (WINNONLIN version 5.0 or higher).
(§5) α-Gal A activity in plasma skin, and PBMC lysates were measured by a fluorescence enzyme assay using 4-methylumbelliferyl-α-D-galactopyranoside (4-MUG). α-Gal A activity on 4 MUG was measured in vitro following serial dilutions to dissociate migalastat.

[3] = target: T2, rhα-Gal A (Homo sapiens, UniProt P06280); assay: In vitro stabilization of rhα-Gal A at neutral pH (thermal denaturation and activity); format: biochemical
T2 sequence (P06280 32-429): T1 sequence (P06280 32-429)
From the text: Migalastat hydrochloride stabilizes wild-type α-Gal A in vitro and as well as in vivo.

[4] = target: T1, α-Gal A; assay: Phase 2 co-administration study: Western blot of plasma α-Gal A protein; format: in vivo; conditions: 5 out of 7 subjects
Protocol: Migalastat HCl and rhα-Gal A Pharmacokinetics. Concentrations of migalastat HCl in blood samples will be measured in plasma using a validated LC-MS/MS assay. α-Gal A levels in plasma will be determined by a validated assay measuring enzyme activity using 4-MUG, with and without Con A. α-Gal A protein levels will be measured by Western blotting using anti-human Gal A antibody.
Western blot analysis of α-Gal A protein were performed on plasma samples using anti-human α-Gal A antibody. An rhα-Gal A (agalsidase) standard curve was run to calculate the appropriate concentration of α-Gal protein in each sample.

[5] = male GLA-deficient mice; 3 and 30 mg/kg three times a week for four weeks with Fabrazyme 1 mg/kg i.v. once a week
Protocol: A preliminary study in GLA deficient mice has been conducted evaluating the safety of co-administered migalastat hydrochloride and Fabrazyme®. Migalastat hydrochloride was administered three times a week for four weeks at doses of 3 and 30 mg/kg in combination with Fabrazyme® administered intravenously once a week at a dose of 1 mg/kg.

[6] = target: T3, agalsidase alfa (Homo sapiens, UniProt P06280); assay: In vitro thermal denaturation assay of agalsidase alfa; format: binding
T3 construct: purchased Shire Human Genetic Therapies (Replagal®)
T3 sequence (P06280 32-429): T1 sequence (P06280 32-429)
Protocol: The effect of migalastat hydrochloride on the physical stability of agalsidase alfa was evaluated with an in vitro thermal denaturation assay.

[7] = target: T1, α-Gal A; assay: Phase 2 co-administration study: skin α-Gal A activity (4-MUG); format: in vivo; conditions: 150 mg migalastat HCl + 0.5 mg/kg agalsidase beta, N=5 (Example 3)
[8] = target: T2, rhα-Gal A; assay: Oral migalastat hydrochloride with rhα-Gal A injection in the GLA deficient mouse, tissue α-Gal A and GL-3; format: in vivo; conditions: 30, 100 or 300 mg/kg oral 30 min prior to and 2 hours after rhα-Gal A, vs rhα-Gal A alone
[9] = Phase 2 co-administration study: safety; format: in vivo, human
From the text: Safety Parameters. Safety parameters will be assessed by review of changes in physical exam findings, vital signs, ECG changes over time, clinical labs and adverse events.
The safety parameters included adverse events (AEs), vital signs, clinical laboratory tests (hematology, serum chemistry, and urinalysis), electrocardiograms (ECGs), physical examinations, and use of concomitant medications.

[10] = target: T1, α-Gal A; assay: Phase 2 co-administration study: PBMC α-Gal A activity (4-MUG); format: in vivo; conditions: for individual patient increases in PBMC α-Gal A activity: 1 mg/kg
Protocol: WBC α-Gal A Levels. α-Gal A levels in WBCs will be determined in blood samples by a validated assay measuring enzyme activity using 4-MUG, with and without Con A. α-Gal A protein levels will be measured by Western blotting using anti-human Gal A antibody.
as §1, §2, §3, §4, §5

[11] = cited from earlier work
[12] = cited from earlier work; remark: listed apart in the source
[13] = cited from earlier work; remark: listed apart in the source
[14] = 150 mg migalastat + 1.0 mg/kg agalsidase beta, Day 2, N=2
[15] = 150 mg migalastat + 1.0 mg/kg agalsidase beta, Day 7, N=2

Compound: OC[C@H]1NC[C@H](O)[C@@H](O)[C@H]1O [migalastat hydrochloride, (2R,3S,4R,5S)-2-(hydroxymethyl)piperidine-3,4,5-triol]
mean increase in PBMC α-Gal A activity ([1]; Day 2): 2.4 fold
mean increase in PBMC α-Gal A activity ([1]; Day 7): 1.9 fold
mean increase in PBMC α-Gal A activity ([1]; Day 14): 2.1 fold
individual patient increases in skin α-Gal A activity ([2]; 150 mg migalastat + 0.5 mg/kg agalsidase beta, Day 2 (Example 2), 0.5 mg/kg): 2.8 fold and 3.9 fold and 1.1 fold
mean increase in skin α-Gal A activity ([2]; 150 mg migalastat + 0.5 mg/kg agalsidase beta, Day 2, N=3 (Example 2)): 2.6 fold
change in skin α-Gal A activity from Period 1 ([2]; 150 mg migalastat + 0.5 mg/kg agalsidase beta, Day 7 (Example 2)): No change
individual patient increases in skin α-Gal A activity ([2]; 150 mg migalastat + 1.0 mg/kg agalsidase beta, Day 2, 1 mg/kg): 1.6 fold and 2.1 fold
mean increase in skin α-Gal A activity [2, 14]: 1.9 fold
individual patient increases in skin α-Gal A activity ([2]; 150 mg migalastat + 1.0 mg/kg agalsidase beta, Day 7, 1 mg/kg): 1.7 fold and 1.2 fold
mean increase in skin α-Gal A activity [2, 15]: 1.5 fold
patients with increased skin α-Gal A activity following co-administration ([2]; 150 mg migalastat + 0.5 or 1.0 mg/kg agalsidase beta, Day 7): 3 of 5 and four
stabilization of rhα-Gal A [3]: significant time- and concentration-dependent increases in stabilization
plasma α-Gal A protein, Period 2 (co-administration)/Period 1 (ERT alone) AUC ratio [4]: No change
survival, clinical condition, hematology and clinical chemistry parameters [5]: no direct drug-related changes
melting temperature (Tm) of agalsidase alfa ([6]; pH 5.2, 10 μM migalastat hydrochloride): 68 °C
melting temperature (Tm) of agalsidase alfa ([6]; pH 7.4, 10 μM migalastat hydrochloride): 59 °C
mean increase in skin α-Gal A activity ([7]; Day 2): 2.6 fold
mean increase in skin α-Gal A activity ([7]; Day 7): 1.4 fold
GL-3 levels in skin, heart, kidney, and plasma [8]: dose-dependent reduction
tissue α-Gal A levels [8]: dose-dependent increase
safety and tolerability ([9]; co-administration of 150 mg migalastat HCl with agalsidase beta): generally safe and well-tolerated
adverse events (AEs) reported ([9]; seven subjects, to date, one serious (TIA, prior to dosing), all considered unrelated to study drug): 12
individual patient increase range in PBMC α-Gal A activity ([10]; 150 mg migalastat + 0.5 mg/kg agalsidase beta, Day 2): 1.4-3.1 fold
mean increase in PBMC α-Gal A activity ([10]; 150 mg migalastat + 0.5 mg/kg agalsidase beta, Day 2, N=4 (Example 2)): 2.3 fold
individual patient increase range in PBMC α-Gal A activity ([10]; 150 mg migalastat + 0.5 mg/kg agalsidase beta, Day 7): 1.4-2.3 fold
mean increase in PBMC α-Gal A activity ([10]; 150 mg migalastat + 0.5 mg/kg agalsidase beta, Day 7, N=4 (Example 2)): 2.0 fold
individual patient increase range in PBMC α-Gal A activity ([10]; 150 mg migalastat + 0.5 mg/kg agalsidase beta, Day 14): 1.7-2.8 fold
mean increase in PBMC α-Gal A activity ([10]; 150 mg migalastat + 0.5 mg/kg agalsidase beta, Day 14, N=4 (Example 2)): 2.2 fold
individual patient increases in PBMC α-Gal A activity ([10]; 150 mg migalastat + 1.0 mg/kg agalsidase beta, Day 2): 1.1 fold and 2.5 fold
mean increase in PBMC α-Gal A activity [10, 14]: 1.8 fold
individual patient increases in PBMC α-Gal A activity ([10]; 150 mg migalastat + 1.0 mg/kg agalsidase beta, Day 7): 3.6 fold and 6.0 fold
mean increase in PBMC α-Gal A activity [10, 15]: 4.8 fold
individual patient increases in PBMC α-Gal A activity ([10]; 150 mg migalastat + 1.0 mg/kg agalsidase beta, Day 14): 1.7 fold and 5.4 fold
mean increase in PBMC α-Gal A activity ([10]; 150 mg migalastat + 1.0 mg/kg agalsidase beta, Day 14, N=2): 3.5 fold

Compound: agalsidase alfa: recombinant α-Gal A enzyme replacement therapy (Replagal®, Shire Human Genetic Therapies)
AUC versus dose ([11]; 0.1 to 0.4 mg/kg): linearly proportional to dose
IgE antibodies ([11]; 10-week study): No IgE antibodies were detected
patients who became IgG positive during the study ([11]; 10-week study): Two of 18
Plasma GL-3 levels reduction ([11]; all dose groups, independent of dose and dosing frequency): approximately 50%
mean half life ([11]; doses 0.1 to 0.4 mg/kg agalsidase alfa, ERT naïve adult male Fabry patients): 56 to 76 min
melting temperature (Tm) of agalsidase alfa ([6]; pH 5.2, enzyme alone): 58 °C
melting temperature (Tm) of agalsidase alfa ([6]; pH 7.4, enzyme alone): approximately 51 °C

patients with decreased skin α-Gal A activity relative to baseline ([2]; agalsidase beta alone, 0.5 mg/kg infusion, Day 2): 2
PBMC α-Gal A activity relative to baseline ([10]; agalsidase beta alone, all patients, all time points): increased
Compound: agalsidase beta: recombinant α-Gal A enzyme replacement therapy (Fabrazyme®; Genzyme Corporation)
maximal agalsidase concentrations and AUC values reduced, of baseline values ([12]; adult patients with the highest titers of IgG): up to 26%
patients who developed IgG antibodies ([12]; adult patients): 79%
patients who developed IgG antibodies ([12]; pediatric patients): 69%
pharmacokinetics, dose linearity ([13]; AUC increasing and clearance decreasing disproportionally with dose): non-linear pharmacokinetics
AUC increase ([13]; dose increased from 0.3 mg/kg to 1 mg/kg): approximately 6 fold
AUC increase ([13]; dose increased from 1 mg/kg to 3 mg/kg): ~8 fold
